# Test results: patent US8124610B2, “Sodium channel inhibitors” (Icagen Inc., priority 2007, dated 2012)
# Biological target: T1, hSCN9A (Homo sapiens, UniProt Q15858)
# T1 construct: expressed in transfected cells
# Assay: Whole-cell patch-clamp electrophysiology (conventional or PatchXpress), HEK cells expressing hSCN9A, estimated IC-50
# Format: cell-based
# Settings: estimated IC-50, HEK cells expressing hSCN9A; class symbols or bounds; read-out: SCN9A EIC-50
# Experimental: Human Embryonic Kidney (HEK) cells were transfected with hSCN3A or hSCN9A constructs using lipofectamine reagent (Invitrogen), using standard techniques. Cells stably expressing the hSCN3A or hSCN9A constructs were identified by their resistance to G-418 (400 μg/ml). Clones were screened for expression using the whole-cell voltage-clamp technique. HEK cells stably transfected with hSCN3A or hSCN9A were maintained in DMEM medium supplemented with 10% heat-inactivated fetal bovine serum and 400 μg/ml G418 sulfate in an incubator at 37° C. with a humidified atmosphere of 10% CO2. For HTS, cells were harvested from flasks by trypsinization and replated in an appropriate multi-well plate (typically 96 or 384 wells/plate) such that confluence would be achieved within 24 hours of plating. For electrophysiological studies, cells were removed from the culture flask by brief trypsinization and replated at low density onto glass cover slips. Cells were typically used for electrophysiological experiments within 24 to 72 h after plating. Cover slips containing HEK cells expressing hSCN3A or hSCN9A were placed in a bath on the stage of an inverted microscope and perfused (approximately 1 ml/min) with extracellular solution of the following composition: 138 mM NaCl, 2 mM CaCl2, 5.4 mM KCl, 1 mM MgCl2, 10 mM glucose, and 10 mM HEPES, pH 7.4, with NaOH. […] All recordings were made at room temperature (22-24° C.) using AXOPATCH 200B amplifiers and PCLAMP software (Axon Instruments, Burlingame, Calif.) or PatchXpress 7000 hardware and associated software (Axon Instruments, Burlingame, Calif.). hSCN3A or hSCN9A currents in HEK cells were measured using the whole-cell configuration of the patch-clamp technique (Hamill et al., 1981). […] As a result, voltage errors were negligible and no correction was applied. Current records were acquired at 20 to 50 KHz and filtered at 5 to 10 KHz. HEK cells stably transfected with hSCN3A or hSCN9A were viewed under Hoffman contrast optics and placed in front of an array of flow pipes emitting either control or compound-containing extracellular solutions. All compounds were dissolved in dimethyl sulfoxide to make 10 mM stock solutions, which were then diluted into extracellular solution to attain the final concentrations desired. […] The voltage-dependence of inactivation was determined by applying a series of depolarizing prepulses (8 sec long in 10 mV increments) from a negative holding potential. The voltage was then immediately stepped to 0 mV to assess the magnitude of the sodium current. Currents elicited at 0 mV were plotted as a function of prepulse potential to allow estimation of the voltage midpoint of inactivation (V1/2). Cells were then voltage clamped at the empirically determined V1/2. Compounds were tested for their ability to inhibit hSCN3A or hSCN9A sodium channels by activating the channel with a 20 msec voltage step to 0 mV following an 8 second conditioning prepulse to the empirically determined V1-2 (Table B). Compound effect (% inhibition) was determined by difference in current amplitude before and after application of test compounds. […] In some cases electrophysiological assays were conducted with PatchXpress 7000 hardware and associated software (Molecular Devices Corp) (Table B). All assay buffers and solutions were identical to those used in conventional whole-cell voltage clamp experiments described above. hSCN3A or hSCN9A containing cells were grown as above to 50%-80% confluency and harvested by trypsinization. Trypsinized cells were washed and resuspended in extracellular buffer at a concentration of 1×10^6 cells/ml. The onboard liquid handling facility of the PatchXpress was used for dispensing cells and application of test compounds. Determination of the voltage midpoint of inactivation was as described for conventional whole-cell recordings. Cells were then voltage-clamped to the empirically determined V1/2 and current was activated by a 20 msec voltage step to 0 mV.
# T1 sequence (Q15858 whole entry): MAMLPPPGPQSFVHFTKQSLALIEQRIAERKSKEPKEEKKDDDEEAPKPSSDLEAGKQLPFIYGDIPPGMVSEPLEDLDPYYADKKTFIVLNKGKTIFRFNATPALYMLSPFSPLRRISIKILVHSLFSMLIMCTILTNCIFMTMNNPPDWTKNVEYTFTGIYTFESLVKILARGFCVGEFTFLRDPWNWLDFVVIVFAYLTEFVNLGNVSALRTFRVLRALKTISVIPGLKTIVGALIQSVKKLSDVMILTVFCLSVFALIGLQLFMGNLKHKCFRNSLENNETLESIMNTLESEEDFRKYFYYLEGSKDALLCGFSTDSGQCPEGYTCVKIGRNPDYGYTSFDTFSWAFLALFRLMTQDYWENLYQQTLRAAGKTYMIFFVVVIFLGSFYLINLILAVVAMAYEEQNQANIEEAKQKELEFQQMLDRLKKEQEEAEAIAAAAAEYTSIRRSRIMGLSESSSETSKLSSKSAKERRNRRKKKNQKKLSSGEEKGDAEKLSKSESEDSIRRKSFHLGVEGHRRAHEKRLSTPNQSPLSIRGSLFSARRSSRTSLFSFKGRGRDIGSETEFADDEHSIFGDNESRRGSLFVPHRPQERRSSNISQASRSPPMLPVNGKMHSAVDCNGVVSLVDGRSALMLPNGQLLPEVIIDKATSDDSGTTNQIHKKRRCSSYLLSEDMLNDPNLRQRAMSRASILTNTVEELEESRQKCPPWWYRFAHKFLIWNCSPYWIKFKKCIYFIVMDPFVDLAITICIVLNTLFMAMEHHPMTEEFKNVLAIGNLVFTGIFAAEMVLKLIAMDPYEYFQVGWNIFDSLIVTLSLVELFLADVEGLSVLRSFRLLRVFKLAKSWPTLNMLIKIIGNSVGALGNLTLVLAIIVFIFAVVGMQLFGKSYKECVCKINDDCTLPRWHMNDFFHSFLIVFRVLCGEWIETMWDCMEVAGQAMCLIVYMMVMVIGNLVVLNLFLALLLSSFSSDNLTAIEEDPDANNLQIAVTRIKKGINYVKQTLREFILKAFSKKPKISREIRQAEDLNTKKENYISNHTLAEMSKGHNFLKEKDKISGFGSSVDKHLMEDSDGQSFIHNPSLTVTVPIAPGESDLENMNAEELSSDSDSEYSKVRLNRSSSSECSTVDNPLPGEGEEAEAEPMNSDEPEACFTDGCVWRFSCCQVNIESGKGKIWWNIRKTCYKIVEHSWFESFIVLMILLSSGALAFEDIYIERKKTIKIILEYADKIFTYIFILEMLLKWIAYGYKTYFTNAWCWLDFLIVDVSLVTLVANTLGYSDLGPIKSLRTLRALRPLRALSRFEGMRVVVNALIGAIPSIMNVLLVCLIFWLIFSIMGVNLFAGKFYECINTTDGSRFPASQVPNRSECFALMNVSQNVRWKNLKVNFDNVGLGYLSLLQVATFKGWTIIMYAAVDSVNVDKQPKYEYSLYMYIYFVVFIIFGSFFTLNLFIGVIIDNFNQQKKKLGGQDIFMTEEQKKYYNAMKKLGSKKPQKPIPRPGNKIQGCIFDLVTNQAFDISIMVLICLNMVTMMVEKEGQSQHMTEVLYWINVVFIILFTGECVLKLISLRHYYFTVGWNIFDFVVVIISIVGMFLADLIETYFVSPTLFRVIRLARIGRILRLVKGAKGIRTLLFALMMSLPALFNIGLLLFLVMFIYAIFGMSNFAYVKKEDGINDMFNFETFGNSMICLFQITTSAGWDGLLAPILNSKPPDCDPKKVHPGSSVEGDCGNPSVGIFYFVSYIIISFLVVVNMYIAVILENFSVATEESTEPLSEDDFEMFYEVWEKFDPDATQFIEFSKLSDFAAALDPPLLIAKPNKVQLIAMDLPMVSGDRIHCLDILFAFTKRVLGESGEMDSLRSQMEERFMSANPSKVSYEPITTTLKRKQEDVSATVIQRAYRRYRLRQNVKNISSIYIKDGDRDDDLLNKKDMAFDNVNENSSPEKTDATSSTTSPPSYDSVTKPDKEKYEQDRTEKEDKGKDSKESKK
row,Compound,IC50 [nM]
1,"CC(C)(C)c1ccc(OCc2csc(Nc3ccc(S(=O)(=O)Nc4nccs4)c(F)c3)n2)cc1 [Compound 102, 4-(4-((4-tert-butylphenoxy)methyl)thiazol-2-ylamino)-2-fluoro-N-(thiazol-2-yl)benzenesulfonamide]",< 2000
2,"O=S(=O)(Nc1nccs1)c1ccc(Nc2nc3ccccc3o2)cc1 [Compound 114, 4-(benzo[d]oxazol-2-ylamino)-N-(thiazol-2-yl)benzenesulfonamide]",2000 to 10000
3,"CC(C)(C)c1csc(Nc2ccc(S(=O)(=O)Nc3nccs3)nc2)n1 [Compound 116, 5-(4-tert-butylthiazol-2-ylamino)-N-(thiazol-2-yl)pyridine-2-sulfonamide]",> 1000
4,"O=S(=O)(Nc1nccs1)c1ccc(Nc2nc3ccccc3s2)cc1 [Compound 117, 4-(benzo[d]thiazol-2-ylamino)-N-(thiazol-2-yl)benzenesulfonamide]",> 1000
5,"O=S(=O)(Nc1nccs1)c1ccc(Nc2nnc(Cc3ccc(Cl)cc3)o2)cc1 [Compound 118, 4-(5-(4-chlorobenzyl)-1,3,4-oxadiazol-2-ylamino)-N-(thiazol-2-yl)benzenesulfonamide]",> 1000
6,"Cn1nc(Cc2ccc(Cl)cc2)c(C(N)=O)c1Nc1ccc(S(=O)(=O)Nc2nccs2)cc1 [Compound 121, 3-(4-chlorobenzyl)-1-methyl-5-(4-(N-thiazol-2-ylsulfamoyl)phenylamino)-1H-pyrazole-4-carboxamide]",> 1000
7,"Cc1nn(C)c(Nc2ccc(S(=O)(=O)Nc3nccs3)cc2)c1-c1ccccc1 [Compound 122, 4-(1,3-dimethyl-4-phenyl-1H-pyrazol-5-ylamino)-N-(thiazol-2-yl)benzenesulfonamide]",> 1000
8,"Cc1nn(C(C)(C)C)c(Nc2ccc(S(=O)(=O)Nc3nccs3)cc2)c1-c1ccccc1 [Compound 123, 4-(1-tert-butyl-3-methyl-4-phenyl-1H-pyrazol-5-ylamino)-N-(thiazol-2-yl)benzenesulfonamide]",> 1000
9,"COc1ccccc1Cc1cc(Nc2ccc(S(=O)(=O)Nc3nccs3)cc2)n(C)n1 [Compound 127, 4-(3-(2-methoxybenzyl)-1-methyl-1H-pyrazol-5-ylamino)-N-(thiazol-2-yl)benzenesulfonamide]",2000 to 10000
10,"Cc1cc(Nc2ccc(S(=O)(=O)Nc3nccs3)cc2)n(Cc2ccc(Cl)cc2)n1 [Compound 128, 4-(1-(4-chlorobenzyl)-3-methyl-1H-pyrazol-5-ylamino)-N-(thiazol-2-yl)benzenesulfonamide]",2000 to 10000

# Other lines, results leading:
row,IC50 [nM],Compound
1,> 1000,"O=S(=O)(Nc1nccs1)c1ccc(Nc2nc(-c3ccc(Cl)cc3)cs2)cc1F [Compound 104, 4-(4-(4-chlorophenyl)thiazol-2-ylamino)-2-fluoro-N-(thiazol-2-yl)benzenesulfonamide]"
2,2000 to 10000,"Cn1nc(Cc2ccc(Cl)cc2)c(C#N)c1Nc1ccc(S(=O)(=O)Nc2nccs2)cc1 [Compound 119, 4-(3-(4-chlorobenzyl)-4-cyano-1-methyl-1H-pyrazol-5-ylamino)-N-(thiazol-2-yl)benzenesulfonamide]"
3,2000 to 10000,"O=S(=O)(Nc1nccs1)c1ccc(Nc2nnc(Cc3ccc(Cl)cc3)s2)cc1 [Compound 120, 4-(5-(4-chlorobenzyl)-1,3,4-thiadiazol-2-ylamino)-N-(thiazol-2-yl)benzenesulfonamide]"
4,> 1000,"Cc1n[nH]c(Nc2ccc(S(=O)(=O)Nc3nccs3)cc2)c1-c1ccccc1 [Compound 124, 4-(3-methyl-4-phenyl-1H-pyrazol-5-ylamino)-N-(thiazol-2-yl)benzenesulfonamide]"
5,2000 to 10000,"Cn1nc(CC(C)(C)C)cc1Nc1ccc(S(=O)(=O)Nc2nccs2)cc1 [Compound 125, 4-(1-methyl-3-neopentyl-1H-pyrazol-5-ylamino)-N-(thiazol-2-yl)benzenesulfonamide]"
6,> 1000,"COc1ccc(Cc2cc(Nc3ccc(S(=O)(=O)Nc4nccs4)cc3)n(C)n2)cc1 [Compound 126, 4-(3-(4-methoxybenzyl)-1-methyl-1H-pyrazol-5-ylamino)-N-(thiazol-2-yl)benzenesulfonamide]"
